Among the test systems are SK-MEL-5; NCI-H522; HCT-15; IGROV-1; RPMI-8226; UACC-257; CAKI-1; SNB-19; MOLT-4; OVCAR-8; ACHN; SF-295; LOX IMVI; U-251; HCT-116; NCI-H226; SN12C; KM12; SW-620; SF-539.
What all share (assay): NCI-60 cell line screen, 48 h

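The compound was tested at five concentrations on cells cultured in 96-well plates, with a 48-hour exposure period. Abbreviation: GI50, concentration required for 50% inhibition of growth.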 The source made the active and inactive calls. Cut-off read from the data, not from the text of the source: active = GI50 up to about 1.1 µM and inactive = higher. Where only a bound is given, the exact number is not on record here.

As to `O=C(O)CCC(=O)Nc1ccc2ccccc2c1`, the GI50 in the test with SK-MEL-5 is > 100 µM (inactive); with NCI-H522 it was > 100 µM (inactive); in the test with HCT-15, > 100 µM; in the test on IGROV-1, > 100 µM (inactive); in the test on RPMI-8226, > 100 µM (inactive); in the test with UACC-257, > 100 µM (inactive). Also, the GI50 in the test with CAKI-1, in the test on SNB-19, in the test on MOLT-4, with OVCAR-8, with ACHN and in the test with SF-295 was > 100 µM (inactive) throughout. Further, the GI50 in the test with LOX IMVI, in the test with U-251, in the test on HCT-116, in the test with NCI-H226, in the test on SN12C and in the test with KM12 was > 100 µM (inactive) throughout. Further, the GI50 in the test with SW-620 was > 100 µM (inactive).

`COc1cc(OC)c(/C=C/c2cnc3ccccc3n2)c(OC)c1`: the GI50 in the test on SF-539 was > 10 µM (inactive); with SK-MEL-5, > 10 µM (inactive); in the test with NCI-H522 it was > 10 µM (inactive); in the test on HCT-15, > 10 µM; in the test on IGROV-1 it was > 10 µM (inactive); in the test on RPMI-8226, > 10 µM (inactive). Also, the GI50 in the test on UACC-257, with CAKI-1, in the test on SNB-19, in the test on OVCAR-8, with ACHN and in the test on SF-295 was > 10 µM (inactive) each time. Moreover, the GI50 with LOX IMVI, in the test with U-251, with HCT-116, in the test on NCI-H226, in the test on SN12C and in the test with KM12 was > 10 µM (inactive) in each case. In the test on SW-620, the GI50 is > 10 µM (inactive).

In the case of `CC(C)(C)C1=C(Br)C(F)(C(C)(C)C)OP1(=O)c1ccccc1` (stereo not drawn), the GI50 with SF-539 was 19.1 µM (inactive); in the test with SK-MEL-5, 11 µM (inactive); in the test with NCI-H522, 15.7 µM (inactive); in the test with HCT-15, 19.5 µM; with IGROV-1, 16 µM (inactive); with RPMI-8226, < 0.01 µM (active). Also, the GI50 in the test with UACC-257 is 16.7 µM (inactive); with CAKI-1, 13 µM (inactive); in the test with SNB-19, 16.4 µM (inactive); with OVCAR-8 it was 21.6 µM (inactive); with ACHN, 16.5 µM (inactive); with SF-295 it was 21.6 µM (inactive). The GI50 in the test with LOX IMVI was 19.3 µM (inactive); in the test on U-251, 17.5 µM (inactive); with HCT-116, 16.7 µM (inactive); in the test with NCI-H226, 15.1 µM (inactive); in the test on SN12C, 16 µM (inactive); in the test on KM12, 18.9 µM (inactive). The GI50 with SW-620 is 17.5 µM (inactive).

In the case of `COC(=O)c1cc2c(c3c1CC(Cc1ccccc1)C3=O)CCC2` (stereo not drawn), the GI50 is > 100 µM (inactive) in the test on SF-539; 64.4 µM (inactive) with SK-MEL-5; 68.4 µM (inactive) in the test with NCI-H522; 35 µM in the test on HCT-15; 73.3 µM (inactive) in the test with IGROV-1; 59.8 µM (inactive) in the test on RPMI-8226. In addition, the GI50 with UACC-257 is > 100 µM (inactive); in the test on SNB-19 it was > 100 µM (inactive); in the test on MOLT-4 it was 53.6 µM (inactive); in the test on OVCAR-8 it was 95.3 µM (inactive); with ACHN, 84.3 µM (inactive); in the test on SF-295 it was > 100 µM (inactive). Further, the GI50 in the test on LOX IMVI is 45.9 µM (inactive); in the test with U-251, 62.8 µM (inactive); with HCT-116, > 100 µM (inactive); in the test with NCI-H226, > 100 µM (inactive); in the test on SN12C it was 78.2 µM (inactive); in the test on KM12, 18.4 µM (inactive). In addition, in the test with SW-620, the GI50 was > 100 µM (inactive).

For `c1ccc(-c2cc(-c3ccccc3)nc(-c3ccncc3)c2)cc1`, the GI50 in the test on SK-MEL-5 was 57.1 µM (inactive); with NCI-H522, > 100 µM (inactive); with HCT-15 it was > 100 µM; in the test with IGROV-1, 25.9 µM (inactive); in the test with RPMI-8226 it was > 100 µM (inactive); with UACC-257, 99.8 µM (inactive). Besides, the GI50 in the test on CAKI-1 is > 100 µM (inactive); with SNB-19, 53.8 µM (inactive); in the test on MOLT-4 it was > 100 µM (inactive); in the test on OVCAR-8, > 100 µM (inactive); in the test on ACHN, 70.8 µM (inactive); in the test on SF-295, 57.1 µM (inactive). The GI50 is > 100 µM (inactive) in the test with LOX IMVI; 37.6 µM (inactive) in the test on U-251; 48.8 µM (inactive) with HCT-116; 58.5 µM (inactive) in the test on NCI-H226; > 100 µM (inactive) in the test on SN12C; 96.4 µM (inactive) in the test on KM12. For the same compound, the GI50 in the test on SW-620 was > 100 µM (inactive).

For the compound `CC12CC3CC(C)(C1)CC(N=[N+]=[N-])(C3)C2`, the GI50 in the test on SF-539, in the test on SK-MEL-5, with NCI-H522, in the test with IGROV-1, in the test on RPMI-8226 and in the test on UACC-257 was > 100 µM (inactive) throughout. The GI50 in the test with CAKI-1, in the test on SNB-19, with MOLT-4, in the test on OVCAR-8, in the test on ACHN and with SF-295 was > 100 µM (inactive) throughout. Moreover, the GI50 in the test with LOX IMVI, in the test with U-251, with HCT-116, in the test with NCI-H226, in the test on SN12C and in the test on KM12 was > 100 µM (inactive) throughout. The GI50 with SW-620 is > 100 µM (inactive).

Take `Cc1cc(Br)cc(C)c1NC(=O)C(=O)C(C(=O)c1ccc(Cl)c(Cl)c1)C1OC(=O)c2ccccc21` (stereo not drawn): the GI50 was 25.2 µM (inactive) with SF-539; 36.5 µM (inactive) in the test with NCI-H522; 50.2 µM in the test with HCT-15; 91.2 µM (inactive) with IGROV-1; 42.2 µM (inactive) in the test on RPMI-8226; 36.7 µM (inactive) in the test with UACC-257. The GI50 was 34.8 µM (inactive) with CAKI-1; 82 µM (inactive) in the test on SNB-19; 12.6 µM (inactive) in the test with MOLT-4; > 100 µM (inactive) in the test on OVCAR-8; 28.5 µM (inactive) in the test on ACHN; 90.6 µM (inactive) in the test on SF-295. Besides, the GI50 in the test on LOX IMVI was > 100 µM (inactive); in the test with U-251, 44.6 µM (inactive); in the test with HCT-116, 48.4 µM (inactive); with NCI-H226, 72.6 µM (inactive); with SN12C, 79.3 µM (inactive); in the test with KM12 it was 36.8 µM (inactive). In addition, in the test with SW-620, the GI50 was > 100 µM (inactive).

Take `O=c1oc2cc(O)ccc2c2[nH]c3cc(O)ccc3c12`: the GI50 is 18.9 µM (inactive) in the test on SF-539; 11.7 µM (inactive) in the test on NCI-H522; 27 µM in the test on HCT-15; 23.1 µM (inactive) in the test on IGROV-1; 78 µM (inactive) in the test with RPMI-8226; 35.2 µM (inactive) with UACC-257. Also, the GI50 is 18.6 µM (inactive) in the test on SNB-19; 34 µM (inactive) in the test with MOLT-4; 27.2 µM (inactive) in the test on OVCAR-8; 22.7 µM (inactive) with ACHN; 66.8 µM (inactive) in the test on SF-295; 18.5 µM (inactive) in the test with LOX IMVI. The GI50 in the test with U-251 is 21.4 µM (inactive); in the test on HCT-116, 17.4 µM (inactive); with NCI-H226 it was 21.4 µM (inactive); with SN12C it was 33.3 µM (inactive); with KM12, 20.9 µM (inactive); in the test on SW-620 it was 34 µM (inactive).

For `C#CC1(O)CCC2[C@@H]3CCc4cc(Oc5nc(F)nc(-c6c7ccccc7c(SCC)n6CCC)n5)ccc4C3CC[C@@]21C` (stereo partly drawn), the GI50 is 58.9 µM (inactive) in the test on SF-539; 63.8 µM (inactive) with SK-MEL-5; > 10 µM (inactive) in the test with NCI-H522; > 100 µM in the test on HCT-15; 94.6 µM (inactive) in the test with IGROV-1; 57.3 µM (inactive) with RPMI-8226. Besides, the GI50 was > 100 µM (inactive) with UACC-257; 28.7 µM (inactive) in the test on MOLT-4; > 100 µM (inactive) in the test with OVCAR-8; > 100 µM (inactive) in the test on ACHN; 65.8 µM (inactive) in the test with SF-295; 76 µM (inactive) in the test with LOX IMVI. For the same compound, the GI50 is 54.6 µM (inactive) in the test on U-251; 29.2 µM (inactive) in the test with HCT-116; 20.6 µM (inactive) with NCI-H226; > 100 µM (inactive) in the test on KM12; > 100 µM (inactive) in the test with SW-620.

`CN(C)c1ccc(/C=C/c2nc3ccccc3s2)cc1`: the GI50 was > 100 µM (inactive) in the test on SF-539; > 100 µM (inactive) in the test on SK-MEL-5; > 100 µM (inactive) in the test on NCI-H522; > 100 µM in the test on HCT-15; > 100 µM (inactive) in the test on IGROV-1; > 100 µM (inactive) in the test on RPMI-8226. The GI50 in the test on UACC-257, in the test with SNB-19, with MOLT-4, in the test on OVCAR-8, with ACHN and in the test with SF-295 was > 100 µM (inactive) each time. Also, the GI50 in the test with LOX IMVI, with U-251, in the test with HCT-116, in the test with NCI-H226, with SN12C and in the test with KM12 was > 100 µM (inactive) throughout. In the test on SW-620, the GI50 was > 100 µM (inactive).

For `COc1cc(OC)c2c(=O)cc(-c3ccc(OC)c(OC)c3OC)oc2c1`, the GI50 in the test with SF-539 was 31.9 µM (inactive); in the test with NCI-H522, 38.9 µM (inactive); with HCT-15, > 100 µM; in the test with IGROV-1, > 100 µM (inactive); in the test with RPMI-8226, > 100 µM (inactive); in the test on UACC-257, > 100 µM (inactive). Also, the GI50 was > 100 µM (inactive) with CAKI-1; > 100 µM (inactive) with SNB-19; 83.6 µM (inactive) in the test with ACHN; 52.2 µM (inactive) in the test with SF-295; > 100 µM (inactive) in the test with LOX IMVI; > 100 µM (inactive) in the test with HCT-116. Further, the GI50 with NCI-H226, with SN12C, in the test on KM12 and in the test with SW-620 was > 100 µM (inactive) in each case.
